Experimental data: article PMC7684686 (2020)

Tests used:
[1] = tested on: a2 (DNA, G4) ACAGGGGTGTGGGGACAGGGGTGTGGGG; assay: photometric titration (Specfit); settings: K+ (25 mM K2HPO4, 70 mM KCl), K-phosphate pH 7.0, DMSO cosolvent (10% in legend, 5% in methods)
[2] = tested on: Fa2T (DNA, G4) ACAGGGGTGTGGGGACAGGGGTGTGGGG; assay: FRET melting; settings: K+ 10 mM (KCl), Na+ 10 mM (cacodylate), Li+ 90 µM [sic]; Na-cacodylate pH 7.2; DNA 0.2 µM, LDR 5 (1 µM ligand); error ± 0.5 °C
[3] = tested on: F21T (DNA, G4) GGGTTAGGGTTAGGGTTAGGG; assay: FRET melting; settings: K+ 10 mM (KCl), Na+ 10 mM (cacodylate), Li+ 90 µM [sic]; Na-cacodylate pH 7.2; DNA 0.2 µM, LDR 5 (1 µM ligand); error ± 0.5 °C
[4] = tested on: FkitT (DNA, G4) AGGGAGGGCGCTGGGAGGAGGG; assay: FRET melting; settings: K+ 10 mM (KCl), Na+ 10 mM (cacodylate), Li+ 90 µM [sic]; Na-cacodylate pH 7.2; DNA 0.2 µM, LDR 5 (1 µM ligand); error ± 0.5 °C
[5] = tested on: 22AG (DNA, G4) AGGGTTAGGGTTAGGGTTAGGG; assay: photometric titration (Specfit); settings: K+ (25 mM K2HPO4, 70 mM KCl), K-phosphate pH 7.0, DMSO cosolvent (10% in legend, 5% in methods)
[6] = tested on: FkrasT (DNA, G4) AGGGCGGTGTGGGAAGAGGA; assay: FRET melting; settings: K+ 10 mM (KCl), Na+ 10 mM (cacodylate), Li+ 90 µM [sic]; Na-cacodylate pH 7.2; DNA 0.2 µM, LDR 5 (1 µM ligand); error ± 0.5 °C
[7] = tested on: FmycT (DNA, G4) TGAGGGTGGGTAGGGTGGGTAA; assay: FRET melting; settings: K+ 10 mM (KCl), Na+ 10 mM (cacodylate), Li+ 90 µM [sic]; Na-cacodylate pH 7.2; DNA 0.2 µM, LDR 5 (1 µM ligand); error ± 0.5 °C

Structure (SMILES) | log Kb ([1]; overall 2:1 constant) | ΔTm [2] [°C] | ΔTm [3] [°C] | ΔTm [4] [°C] | log Kb ([5]; overall 2:1 constant) | ΔTm [6] [°C] | ΔTm [7] [°C] | log Kb [5] | log Kb [1]
COc1ccc2cc3[n+](cc2c1OCCCCCCn1cc(Cn2cnc4c(N)ncnc42)nn1)CCc1cc2c(cc1-3)OCO2 | 11.1 ± 0.1 log (K in M^-2) | 1.1 | 12.9 | 2.7 | 10.7 ± 0.1 log (K in M^-2) | 10.1 | 5.0 |  | 
COc1ccc2cc3[n+](cc2c1OCCCCCn1cc(Cn2cnc4c(N)ncnc42)nn1)CCc1cc2c(cc1-3)OCO2 | 11.1 ± 0.2 log (K in M^-2) | 0.0 | 9.9 |  | 10.8 ± 0.1 log (K in M^-2) |  |  | 5.09 ± 0.13 log (K in M^-1) | 
COc1ccc2cc3[n+](cc2c1OCCCCn1cc(Cn2cnc4c(N)ncnc42)nn1)CCc1cc2c(cc1-3)OCO2 | 10.6 ± 0.3 log (K in M^-2) | −0.1 | 6.4 |  | 10.7 ± 0.1 log (K in M^-2) |  |  | 5.23 ± 0.09 log (K in M^-1) | 
COc1ccc2cc3[n+](cc2c1OCCCn1cc(Cn2cnc4c(N)ncnc42)nn1)CCc1cc2c(cc1-3)OCO2 | 10.6 ± 0.2 log (K in M^-2) |  | 6.2 |  | 10.8 ± 0.2 log (K in M^-2) |  |  | 5.64 ± 0.15 log (K in M^-1) | 5.39 ± 0.14 log (K in M^-1)
COc1ccc2cc3[n+](cc2c1OCCn1cc(Cn2cnc4c(N)ncnc42)nn1)CCc1cc2c(cc1-3)OCO2 | 10.3 ± 0.1 log (K in M^-2) | −0.5 | 3.4 |  |  |  |  | 5.89 ± 0.07 log (K in M^-1) | 5.27 ± 0.08 log (K in M^-1)
